Values after ≈ are worked out from the molar mass of the structure shown. Active and inactive are the calls of the source. The calls are words filed in the database; no cut-off is given here.
How the values were obtained:
[1] = Inhibition of NF-kappaB activation transfected in PMA-stimulated HEK293 cells after 16 hrs by luciferase reporter gene assay; type: cell-based; conditions: HEK293, 16 h
[2] = Drug level in mouse blood at 30 mg/kg, ip after 3 hrs by LC/MS analysis; type: ADME, organism-based; set-up: dose 30 mg/kg, route intraperitoneal; conditions: whole blood, read-out: Drug uptake
[3] = Permeability at 50 uM at pH 6.2 by PAMPA; type: ADME; conditions: pH 6.2, 50 µM
[4] = Drug level in mouse blood at 30 mg/kg, ip after 0.5 hrs by LC/MS analysis; type: ADME, organism-based; set-up: dose 30 mg/kg, route intraperitoneal; conditions: whole blood, read-out: Drug uptake
[5] = biological target: Tyrosine-protein kinase JAK2 (Homo sapiens) (UniProt O60674); assay: Inhibition of JAK2 at 10 uM
[6] = Permeability at 50 uM at pH 7.4 by PAMPA; type: ADME; conditions: pH 7.4, 50 µM
[7] = Aqueous solubility at pH 7.4 after 18 hrs by UV kinetic solubility method; type: physicochemical; conditions: aqueous medium
[8] = Cytotoxicity against human Fa2N-4 cells after 24 hrs by ATP-lite 1-step assay; type: cell-based; conditions: read-out: LD50
[9] = biological target: Protein kinase C theta type (Homo sapiens) (UniProt Q04759); assay: Inhibition of PKCtheta up to 8 uM
[10] = Metabolic stability in mouse liver microsomes assessed as compound remaining at 10 uM after 1 hr by LC/MS/MS analysis; type: ADME, Microsome; conditions: read-out: Stability
[11] = Drug level in mouse blood at 50 mg/kg, ip after 0.5 hrs by LC/MS analysis; type: ADME, organism-based; set-up: dose 50 mg/kg, route intraperitoneal; conditions: whole blood, read-out: Drug uptake
[12] = Cytotoxicity against human HEK293 cells after 24 hrs by ATP-lite 1-step assay; type: cell-based; conditions: read-out: LD50
[13] = biological target: T1, Inhibitor of nuclear factor kappa-B kinase subunit beta (Homo sapiens) (UniProt O14920); assay: Inhibition of IKK-beta up to 8 uM
T1 sequence (whole entry): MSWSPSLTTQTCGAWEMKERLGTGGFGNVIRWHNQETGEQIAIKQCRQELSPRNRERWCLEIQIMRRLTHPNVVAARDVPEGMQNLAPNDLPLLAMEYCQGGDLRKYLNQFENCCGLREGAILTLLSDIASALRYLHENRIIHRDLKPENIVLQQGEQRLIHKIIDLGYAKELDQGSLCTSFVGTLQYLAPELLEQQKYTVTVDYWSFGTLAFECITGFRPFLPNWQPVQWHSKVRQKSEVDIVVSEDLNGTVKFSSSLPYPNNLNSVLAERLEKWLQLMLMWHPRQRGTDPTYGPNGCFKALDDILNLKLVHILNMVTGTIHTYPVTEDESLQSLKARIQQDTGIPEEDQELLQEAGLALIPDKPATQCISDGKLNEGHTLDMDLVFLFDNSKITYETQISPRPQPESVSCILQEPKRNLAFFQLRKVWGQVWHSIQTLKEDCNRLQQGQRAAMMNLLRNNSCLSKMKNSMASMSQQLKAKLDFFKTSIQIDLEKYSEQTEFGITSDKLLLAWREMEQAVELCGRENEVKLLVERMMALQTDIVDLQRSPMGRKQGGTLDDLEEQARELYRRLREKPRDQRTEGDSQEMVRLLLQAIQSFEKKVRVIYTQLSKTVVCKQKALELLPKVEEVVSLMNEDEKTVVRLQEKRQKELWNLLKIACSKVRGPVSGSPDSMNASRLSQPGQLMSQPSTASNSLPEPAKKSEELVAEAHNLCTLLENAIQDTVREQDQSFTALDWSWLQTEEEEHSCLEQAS

[14] = biological target: T2, Serine/threonine-protein kinase tousled-like 1 (Homo sapiens) (UniProt Q9UKI8); assay: Inhibition of TLK1 at 10 uM
T2 sequence (whole entry): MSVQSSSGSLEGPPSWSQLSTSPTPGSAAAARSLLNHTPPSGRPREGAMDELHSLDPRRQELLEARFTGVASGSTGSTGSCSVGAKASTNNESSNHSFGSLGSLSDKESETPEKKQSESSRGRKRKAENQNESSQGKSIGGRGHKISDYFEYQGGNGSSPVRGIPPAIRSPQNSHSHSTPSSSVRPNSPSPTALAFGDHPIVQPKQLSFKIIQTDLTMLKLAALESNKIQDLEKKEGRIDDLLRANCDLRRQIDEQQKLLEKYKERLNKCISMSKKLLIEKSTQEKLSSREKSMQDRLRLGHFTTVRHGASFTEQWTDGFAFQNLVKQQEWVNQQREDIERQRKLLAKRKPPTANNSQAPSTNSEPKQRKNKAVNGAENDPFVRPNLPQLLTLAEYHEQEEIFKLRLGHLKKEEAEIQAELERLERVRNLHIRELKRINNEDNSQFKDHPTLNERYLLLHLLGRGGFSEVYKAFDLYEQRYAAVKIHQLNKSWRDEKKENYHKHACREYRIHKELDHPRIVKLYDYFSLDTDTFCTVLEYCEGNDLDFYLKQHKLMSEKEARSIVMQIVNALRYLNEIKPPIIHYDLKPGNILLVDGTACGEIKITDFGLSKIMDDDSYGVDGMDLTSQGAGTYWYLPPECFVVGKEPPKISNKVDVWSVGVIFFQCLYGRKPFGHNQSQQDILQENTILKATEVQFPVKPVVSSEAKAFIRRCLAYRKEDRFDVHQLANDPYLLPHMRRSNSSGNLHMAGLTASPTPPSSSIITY

[15] = Metabolic stability in human liver microsomes assessed as compound remaining at 1 uM after 1 hr by LC/MS/MS analysis; type: ADME, Microsome; conditions: read-out: Stability
[16] = Drug level in mouse blood at 50 mg/kg, ip after 3 hrs by LC/MS analysis; type: ADME, organism-based; set-up: dose 50 mg/kg, route intraperitoneal; conditions: whole blood, read-out: Drug uptake
[17] = Metabolic stability in human liver microsomes assessed as compound remaining at 10 uM after 1 hr by LC/MS/MS analysis; type: ADME, Microsome; conditions: read-out: Stability
[18] = Aqueous solubility at pH 6.2 after 18 hrs by UV kinetic solubility method; type: physicochemical; conditions: aqueous medium
[19] = Drug level in mouse blood at 10 mg/kg, ip after 0.5 hrs by LC/MS analysis; type: ADME, organism-based; set-up: dose 10 mg/kg, route intraperitoneal; conditions: whole blood, read-out: Drug uptake
[20] = biological target: Protein kinase C beta type (Homo sapiens) (UniProt P05771); assay: Inhibition of PKCbeta up to 8 uM
[21] = Drug level in mouse blood at 10 mg/kg, ip after 3 hrs by LC/MS analysis; type: ADME, organism-based; set-up: dose 10 mg/kg, route intraperitoneal; conditions: whole blood, read-out: Drug uptake
[22] = system: HEK293; assay: Inhibition of NF-kappaB activation transfected in TNF-alpha-stimulated HEK293 cells after 16 hrs by luciferase reporter gene assay; type: cell-based
[23] = Permeability at 50 uM at pH 5 by PAMPA; type: ADME; conditions: pH 5, 50 µM
[24] = Metabolic stability in mouse liver microsomes assessed as compound remaining at 1 uM after 1 hr by LC/MS/MS analysis; type: ADME, Microsome; conditions: read-out: Stability
[25] = Aqueous solubility at pH 5 after 18 hrs by UV kinetic solubility method; type: physicochemical; conditions: aqueous medium
[26] = biological target: RAF proto-oncogene serine/threonine-protein kinase (Homo sapiens) (UniProt P04049); assay: Inhibition of raf kinase at 10 uM
Sequence of RAF proto-oncogene serine/threonine-protein kinase (Homo sapiens) (P04049 whole entry): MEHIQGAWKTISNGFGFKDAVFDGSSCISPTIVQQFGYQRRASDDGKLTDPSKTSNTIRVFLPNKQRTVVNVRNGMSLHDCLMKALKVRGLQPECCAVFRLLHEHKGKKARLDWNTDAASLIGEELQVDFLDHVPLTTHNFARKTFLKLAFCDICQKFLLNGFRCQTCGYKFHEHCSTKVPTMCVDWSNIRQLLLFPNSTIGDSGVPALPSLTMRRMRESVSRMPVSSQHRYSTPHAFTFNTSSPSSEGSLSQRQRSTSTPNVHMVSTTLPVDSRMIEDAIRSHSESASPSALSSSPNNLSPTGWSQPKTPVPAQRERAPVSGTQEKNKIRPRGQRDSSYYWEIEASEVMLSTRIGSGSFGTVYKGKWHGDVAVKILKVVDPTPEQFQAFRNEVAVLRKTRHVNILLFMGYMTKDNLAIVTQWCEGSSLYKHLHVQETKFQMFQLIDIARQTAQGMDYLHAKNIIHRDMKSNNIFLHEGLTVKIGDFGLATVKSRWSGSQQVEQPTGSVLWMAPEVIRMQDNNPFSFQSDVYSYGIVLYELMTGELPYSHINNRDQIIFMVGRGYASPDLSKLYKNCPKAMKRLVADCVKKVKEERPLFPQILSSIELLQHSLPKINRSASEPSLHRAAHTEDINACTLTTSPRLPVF

Sequence of Protein kinase C theta type (Homo sapiens) (Q04759 whole entry, looked up): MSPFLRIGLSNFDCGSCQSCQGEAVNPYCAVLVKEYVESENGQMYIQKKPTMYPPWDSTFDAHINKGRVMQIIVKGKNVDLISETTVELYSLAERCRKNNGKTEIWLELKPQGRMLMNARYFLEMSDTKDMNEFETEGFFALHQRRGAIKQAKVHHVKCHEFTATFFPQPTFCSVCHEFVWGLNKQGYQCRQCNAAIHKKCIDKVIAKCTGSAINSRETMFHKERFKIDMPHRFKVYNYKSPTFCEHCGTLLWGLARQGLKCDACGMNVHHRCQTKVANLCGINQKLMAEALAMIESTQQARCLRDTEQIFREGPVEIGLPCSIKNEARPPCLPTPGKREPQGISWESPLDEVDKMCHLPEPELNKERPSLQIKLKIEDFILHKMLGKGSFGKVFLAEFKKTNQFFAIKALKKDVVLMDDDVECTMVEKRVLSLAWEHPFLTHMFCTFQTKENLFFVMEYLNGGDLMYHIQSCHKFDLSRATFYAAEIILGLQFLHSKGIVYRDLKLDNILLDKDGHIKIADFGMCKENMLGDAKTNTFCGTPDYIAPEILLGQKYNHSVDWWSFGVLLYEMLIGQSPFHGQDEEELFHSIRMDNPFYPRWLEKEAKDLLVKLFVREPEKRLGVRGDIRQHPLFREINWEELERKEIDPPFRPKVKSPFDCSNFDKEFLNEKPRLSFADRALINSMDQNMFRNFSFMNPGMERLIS
Sequence of Protein kinase C beta type (Homo sapiens) (P05771 2-671 limits assumed): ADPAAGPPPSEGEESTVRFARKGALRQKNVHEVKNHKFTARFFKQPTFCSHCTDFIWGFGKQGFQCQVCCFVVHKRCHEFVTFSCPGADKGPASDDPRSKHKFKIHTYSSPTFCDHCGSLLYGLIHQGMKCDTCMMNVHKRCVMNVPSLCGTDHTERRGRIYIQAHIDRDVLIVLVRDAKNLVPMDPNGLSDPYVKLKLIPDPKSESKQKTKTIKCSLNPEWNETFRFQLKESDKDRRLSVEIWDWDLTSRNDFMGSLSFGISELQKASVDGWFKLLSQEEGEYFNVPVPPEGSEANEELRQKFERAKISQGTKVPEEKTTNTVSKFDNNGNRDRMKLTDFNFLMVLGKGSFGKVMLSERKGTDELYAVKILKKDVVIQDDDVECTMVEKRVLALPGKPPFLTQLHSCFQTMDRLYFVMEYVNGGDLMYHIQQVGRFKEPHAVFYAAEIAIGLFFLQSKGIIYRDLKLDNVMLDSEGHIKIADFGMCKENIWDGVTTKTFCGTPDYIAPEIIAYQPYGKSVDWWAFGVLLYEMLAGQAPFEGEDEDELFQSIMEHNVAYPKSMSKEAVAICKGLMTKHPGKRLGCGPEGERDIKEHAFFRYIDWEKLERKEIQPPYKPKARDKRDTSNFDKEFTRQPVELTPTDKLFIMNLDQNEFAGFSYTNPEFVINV
Sequence of Tyrosine-protein kinase JAK2 (Homo sapiens) (O60674 whole entry): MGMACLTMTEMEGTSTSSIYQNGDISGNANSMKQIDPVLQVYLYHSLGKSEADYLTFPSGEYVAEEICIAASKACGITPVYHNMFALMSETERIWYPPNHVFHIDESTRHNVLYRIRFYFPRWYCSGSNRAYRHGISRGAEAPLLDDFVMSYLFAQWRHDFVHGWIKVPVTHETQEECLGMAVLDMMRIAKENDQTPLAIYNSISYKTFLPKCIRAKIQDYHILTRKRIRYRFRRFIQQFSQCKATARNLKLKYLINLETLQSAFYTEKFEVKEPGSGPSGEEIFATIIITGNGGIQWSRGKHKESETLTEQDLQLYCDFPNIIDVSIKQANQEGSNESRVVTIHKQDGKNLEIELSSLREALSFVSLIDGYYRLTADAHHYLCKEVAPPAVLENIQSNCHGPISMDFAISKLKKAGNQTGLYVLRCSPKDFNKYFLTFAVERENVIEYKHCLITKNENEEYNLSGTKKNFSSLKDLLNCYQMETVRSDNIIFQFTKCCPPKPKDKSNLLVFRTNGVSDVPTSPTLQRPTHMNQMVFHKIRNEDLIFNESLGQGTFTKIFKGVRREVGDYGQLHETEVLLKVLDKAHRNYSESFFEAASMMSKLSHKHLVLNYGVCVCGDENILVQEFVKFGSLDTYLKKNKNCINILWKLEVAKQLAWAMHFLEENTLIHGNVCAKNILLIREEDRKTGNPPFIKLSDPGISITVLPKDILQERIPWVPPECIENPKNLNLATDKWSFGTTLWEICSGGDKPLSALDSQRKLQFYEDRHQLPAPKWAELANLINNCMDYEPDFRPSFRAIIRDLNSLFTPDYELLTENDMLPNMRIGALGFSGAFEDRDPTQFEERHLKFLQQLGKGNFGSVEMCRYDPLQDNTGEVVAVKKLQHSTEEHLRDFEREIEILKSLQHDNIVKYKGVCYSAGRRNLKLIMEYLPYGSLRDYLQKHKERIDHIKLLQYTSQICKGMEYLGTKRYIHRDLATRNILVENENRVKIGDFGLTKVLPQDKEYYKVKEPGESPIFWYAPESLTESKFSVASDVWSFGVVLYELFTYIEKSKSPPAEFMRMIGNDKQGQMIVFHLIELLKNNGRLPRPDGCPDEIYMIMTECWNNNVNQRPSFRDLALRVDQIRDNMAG

Question: With CC(C)(C)c1cc(C(=O)Cn2c(NCCCO)nc3ccc(N)cc32)cc(C(C)(C)C)c1O as the compound, how does the IC50 [1] read?
Answer: 400 nM

Question: Which IC50 [1] does the source give for CCCCNc1nc2cc(C)c(C)cc2n1CC(=O)c1cc(C(C)(C)C)c(O)c(C(C)(C)C)c1 here?
Answer: 800 nM

Question: Which IC50 [1] does the source give for Cc1cc2nc(NCCCO)n(CC(=O)c3cccc(C(C)(C)C)c3)c2cc1C here?
Answer: 11000 nM

Question: With CC(C)(C)c1cc(C(=O)Cn2c(NCCCO)nc3ccc([N+](=O)[O-])cc32)cc(C(C)(C)C)c1O as the compound, how does the IC50 [1] read?
Answer: > 8000 nM

Question: For CNc1nc2cc(C)c(C)cc2n1CC(=O)c1cc(C(C)(C)C)c(O)c(C(C)(C)C)c1, which IC50 [1] is on record?
Answer: 300 nM

Question: For Cc1cc2nc(N3CCC(O)CC3)n(CC(=O)c3cc(C(C)(C)C)c(O)c(C(C)(C)C)c3)c2cc1C, which IC50 [1] is on record?
Answer: 13000 nM

Question: For CC(C)(C)c1cc(C(=O)Cn2c(NCCCO)nc3ccc(-c4ccccc4)cc32)cc(C(C)(C)C)c1O, which IC50 [1] is on record?
Answer: 900 nM

Question: For CC(C)(C)c1cc(C(=O)Cn2c(NCCCO)nc3cc(C(=O)c4ccccc4)ccc32)cc(C(C)(C)C)c1O, which IC50 [1] is on record?
Answer: 1800 nM

Question: Which IC50 [1] does the source give for CC(C)(C)c1cc(C(=O)Cn2c(NCCCO)nc3cc(N)ccc32)cc(C(C)(C)C)c1O here?
Answer: 800 nM

Question: With CC(C)(C)c1cc(C(=O)Cn2c(NCCCO)nc3ccc(Br)cc32)cc(C(C)(C)C)c1O as the compound, how does the IC50 [1] read?
Answer: 6000 nM

Question: For Cc1cc2nc(NC3CCC(O)CC3)n(CC(=O)c3cc(C(C)(C)C)c(O)c(C(C)(C)C)c3)c2cc1C (configuration not stated), which IC50 [1] is on record?
Answer: 100 nM

Question: Which IC50 [1] does the source give for CC(C)(C)c1cc(C(=O)Cn2c(NCCCO)nc3cc([N+](=O)[O-])ccc32)cc(C(C)(C)C)c1O here?
Answer: 2000 nM

Question: For CC(C)(C)c1cc(C(=O)Cn2c(NCCCO)nc3cc(-c4ccccc4)ccc32)cc(C(C)(C)C)c1O, which IC50 [1] is on record?
Answer: 600 nM

Question: For Cc1cc2nc(NCCCO)n(CC(=O)c3cc(C(C)(C)C)c(O)c(C(C)(C)C)c3)c2cc1C, which concentration at 3 h [2] is on record?
Answer: 3.64 µM

Question: What about the permeability [3] of the same compound?
Answer: 710 ×10⁻⁶ cm/s

Question: And the concentration at 0.5 h [4]?
Answer: 8.28 µM

Question: What about the inhibition [5] of the same compound?
Answer: 53%

Question: And the permeability [6]?
Answer: 441 ×10⁻⁶ cm/s

Question: What about the solubility kinetic at 18 h [7] of the same compound?
Answer: 0.7 µg/mL (≈ 1.5 µM)

Question: And the CC50 at 24 h [8]?
Answer: 47000 nM

Question: What about the inhibition [9] of the same compound?
Answer: inactive

Question: And the remaining at 1 h, 10 µM [10]?
Answer: 19%

Question: What about the concentration at 0.5 h [11] of the same compound?
Answer: 5.93 µM

Question: What about the CC50 at 24 h [12] of the same compound?
Answer: 40000 nM

Question: What about the inhibition [13] of the same compound?
Answer: inactive

Question: And the inhibition [14]?
Answer: 70%

Question: What about the remaining at 1 h, 1 µM [15] of the same compound?
Answer: 26%

Question: And the concentration at 3 h [16]?
Answer: 6.96 µM

Question: What about the remaining at 1 h, 10 µM [17] of the same compound?
Answer: 55%

Question: What about the solubility kinetic at 18 h [18] of the same compound?
Answer: 0.5 µg/mL (≈ 1.07 µM)

Question: What about the concentration at 0.5 h [19] of the same compound?
Answer: 1.81 µM

Question: And the inhibition [20]?
Answer: inactive

Question: What about the concentration at 3 h [21] of the same compound?
Answer: 0.5 µM

Question: What about the inhibition [22] of the same compound?
Answer: inactive

Question: What about the permeability [23] of the same compound?
Answer: 299 ×10⁻⁶ cm/s

Question: What about the remaining at 1 h, 1 µM [24] of the same compound?
Answer: 0.5%

Question: And the solubility kinetic at 18 h [25]?
Answer: 42 µg/mL (≈ 90.2 µM)

Question: And the inhibition [26]?
Answer: 57%

Question: With Cc1cc2nc(NCCCO)n(CC(=O)c3cccc(OC(C)(C)C)c3)c2cc1C as the compound, how does the IC50 [1] read?
Answer: 16000 nM

Question: For COCCCNc1nc2cc(C)c(C)cc2n1CC(=O)c1cc(C(C)(C)C)c(O)c(C(C)(C)C)c1, which IC50 [1] is on record?
Answer: 300 nM

Question: For CC(C)(C)c1cc(C(=O)Cn2c(NCCCO)nc3cc(Br)ccc32)cc(C(C)(C)C)c1O, which IC50 [1] is on record?
Answer: 3000 nM

Question: For Cc1cc2nc(NCCCO)n(CC(=O)c3cc(C(C)(C)C)cc(C(C)(C)C)c3)c2cc1C, which IC50 [1] is on record?
Answer: 100 nM

From ChEMBL document CHEMBL1177698, “Inhibition of protein kinase C-driven nuclear factor-kappaB activation: synthesis, structure-activity relationship, and pharmacological profiling of pathway specific benzimidazole probe molecules” (J Med Chem, 2010)
